Data on one compound can be found in patent US9388126B2, “Sigma receptor ligands and methods of modulating cellular protein homeostasis using same” (Drexel University, priority 2012, dated 2016).

As usually defined, the EC50 is the midpoint of the concentration-response curve.

Test [1] concerns MDA-MB-468 (GFP-LC3) cells. Description: GFP-LC3 punctae (autophagosome formation) microscopy assay. The format is cell-based, human. The following applies: for punctae per cell / mean number of punctae per cell: 24 hours; for autophagosomes per cell / GFP-LC3 punctae per cell: 10 μM for 20 hours. The protocol:
The human GFP-LC3 expression plasmid, pEGFP-LC3 (a gift from Drs. Grazia Ambrosini and Gary K. Schwartz, MSKCC), was stably transfected into MDA-MB-468 and selected with 0.5 mg/ml G418 sulfate. Stable populations were generated and compared to parental MDA-MB-468 for Sigma1 expression and autophagic and growth inhibitory response to Sigma ligands. GFP-LC3 translocation (punctae formation) was assessed by microscopy in MDA-MB-468 (GFP-LC3) stable cell populations. For microscopy-based experiments, cells were seeded onto Lab-Tek II glass chamber slides (Nalge Nunc International). […] Images of GFP-LC3 punctae were acquired with a Zeiss Axioplan 2 Imaging widefield microscope using Axiovision LE software. Punctae were counted using the spot quantitation program in the Fluoro-Chem software package (Alpha Innotech) and confirmed in parallel by manual counting. Autophagosome formation in MDAMB-468 (GFP-LC3) cells was quantitated as the mean number of GFP-LC3 punctae per GFP positive cell.
Initially, an established immunoblot-based assay to detect microtubule associated protein light chain 3 (LC3) lipidation was used to test for the activation of autophagy. […] Since transient transfections can produce spurious GFP-LC3 aggregates, stable GFP-LC3 transfected populations of MDA-MB-468 (GFP-LC3) were generated. […]

Test [2] concerns MCF-7, T47D and MDA-MB-468 cells. Put plainly: Cell proliferation by Alamar blue reduction, breast adenocarcinoma cultures. The class given is cell-based, human. The note with it: after 4 days of treatment, six drug concentrations. From the text: In vitro cell proliferation was quantitated by Alamar blue reduction. The anti-proliferative effects of six drug concentrations of the indicated drugs were quantitated after 4 days of treatment.
For orientation: Alamar Blue is a resazurin reagent that responds to reducing activity.

Test [3] deals with T47D and MDA-MB-468 cells. Description: Cell cycle profile (G1, S, G2 phase cells). The format is cell-based, human. The note with it: 24 hours; IPAG 1 μM (T47D) or 10 μM (MDA-MB-468); (+)-SKF-10047 10 μM. The protocol: FIG. 30, comprising FIGS. 30A-30B, illustrates that Sigma1 antagonists mediate cell cycle arrest. […] FIG. 30A is a graph illustrating the percentage of G1, S, and G2 phase cells in T47D cells treated for 24 hours with DMSO (vehicle control), 1 μM IPAG (Sigma1 antagonist), or 10 μM (+)SKF-10047 (Sigma1 agonist). FIG. 30 B is a graph illustrating the percentage of G1, S, and G2 phase cells in MDA-MB-468 cells treated for 24 hours with DMSO (vehicle control), 10 μM IPAG (Sigma1 antagonist), or 10 μM (+)-SKF-10047 (Sigma1 agonist).

Test [4] addresses T1, Sigma1-HA-His6 protein associations in MDA-MB-468 cells (Mus musculus, UniProt O55242).
T1 construct: expressed in transfected cells; host or cells: MDA-MB-468 breast adenocarcinoma cells
Put plainly: Ni-NTA co-purification of Sigma1-HA-His6 associated proteins. The class given is cell-based. The following applies: 10 μM, 12 hours. The text has this: FIG. 44, comprising FIGS. 44A-44D, illustrates the finding that p97/VCP is a Sigma1 associated protein. A novel assay was developed to evaluate Sigma1 ligand modulation of Sigma1 functions involving protein-protein interactions. FIG. 44A is an image of an immunoblot confirming expression of p97/VCP and Sigma1-HA-His6 in detergent soluble cell extracts added to Ni-NTA resin (input). FIG. 44B is an image of an immunoblot relating to eluate from a Ni-NTA affinity purified fraction. Co-isolation/co-purification of p97/VCP was accomplished with Sigma1-HA-His6, which was isolated/purified by Ni-NTA. […] FIG. 44C is an image of an immunoblot confirming expression of p97/VCP and Sigma1-HA-His6 in detergent-soluble cell extracts from MDA-MB-468 breast adenocarcinoma cells treated for 12 hours with 10 μM IPAG (Sigma1 putative antagonist); the extracts were added to Ni-NTA resin (input). FIG. 44D is an image of an immunoblot illustrating eluate from a Ni-NTA affinity purified fraction. Co-isolation/co-purification of p97/VCP was accomplished with Sigma1-HA-His6, which was isolated/purified by Ni-NTA. […] Molecular mass is presented in kilodaltons (kDa).
FIG. 45, comprising FIGS. 45A-45B, illustrates the finding that ubiquitylated proteins are bound to Sigma1. A novel assay was developed to evaluate Sigma1 ligand modulation of Sigma functions involving association with ubiquitylated proteins. […]

T1 sequence (O55242 whole entry): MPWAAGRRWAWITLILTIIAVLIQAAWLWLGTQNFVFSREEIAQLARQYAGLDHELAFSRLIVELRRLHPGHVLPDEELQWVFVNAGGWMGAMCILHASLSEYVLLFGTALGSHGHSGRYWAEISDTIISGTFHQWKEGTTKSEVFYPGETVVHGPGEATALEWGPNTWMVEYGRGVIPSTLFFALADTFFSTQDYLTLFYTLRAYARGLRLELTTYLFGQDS

On to `N=C(Nc1ccc(I)cc1)NC1C2CC3CC(C2)CC1C3` (stereo not drawn) [IPAG, 1-(4-iodophenyl)-3-(2-adamantyl)guanidine], for which the punctae per cell in test [1] (10 μM IPAG alone, 3-MA experiment) was found to be 23±2 punctae per cell; in test [1] (10 μM IPAG with addition of 3-MA (5 mM)), 12±1 punctae per cell. Further, the figures for the autophagosomes per cell in test [1] (ATF4 knocked down), in test [1] (IRE1α knocked down) and in test [1] (no UPR knockdown) were 5±1 autophagosomes per cell, 9±2 autophagosomes per cell and 24±2 autophagosomes per cell, respectively. In addition, the “GFP-LC3 punctae per cell” value in test [1] (Sigma1-knockdown cells) came to 10±2 punctae per cell; in test [1] (control siRNA transfected cells), 28±4 punctae per cell. Also, the “mean number of punctae per cell” value in test [1] (10 μM, knockdown of Beclin1) is on record as 6±1 punctae per cell; in test [1] (10 μM, without Beclin1 knockdown), 28±3 punctae per cell. The “time at which significant formation of autophagosomes was detected” value in test [1] (10 μM, GFP-LC3 punctae and LC3II immunoblot) was 6 to 12 h. Also, in test [1] (Homo sapiens, MDA-MB-468, 24 hours of treatment, read-out: potency (EC50±S.E.M.) of autophagosome formation (GFP-LC3 punctae)), the EC50 worked out at 9 ± 3 µM. In addition, the autophagosome formation in test [1] (IPAG alone, JNK inhibitor experiment) is given as 23±2; in test [1] (IPAG and JNK inhibitor SP600125), 7±1. Further, in test [1] (following 24 hours of treatment), the “concentration at which precipitous cell death occurred” value turned out to be 40 µM. For the same compound, in test [2], the “inhibition of cell proliferation” value is on record as “inhibited cell proliferation with comparable potencies in all cell lines”. For the same compound, the cell cycle profile result in test [3] was “accumulation of breast adenocarcinoma cells in G1 phase of the cell cycle”. Besides, the “Sigma1-associated p97/VCP in Ni-NTA eluate” value in test [4] was “Lower levels of Sigma1-associated p97/VCP”. For the same compound, in test [4], the “Sigma1-associated ubiquitylated proteins in Ni-NTA eluate” value is on record as “Increased levels of Sigma1-associated ubiquitylated proteins”.
